The supplement of paper PMC13380429

Assays:
Details in all cases: 72 h
[1] = tested on: U2OS; assay: relative viability EC50 (midpoint between 100% and the lowest measured viability); higher = less toxic
[2] = tested on: Calu-3; assay: as above
[3] = tested on: HepG2; assay: as above
[4] = tested on: Vero E6; assay: as above
[5] = tested on: U2OS; assay: drug sensitivity score (DSS) for viability; higher = more toxic; extreme values may be limits of the assay
[6] = tested on: Calu-3; assay: as above
[7] = tested on: HepG2; assay: as above
[8] = tested on: Caco-2; assay: as above
[9] = tested on: Vero E6; assay: as above
[10] = tested on: U2OS; assay: cell viability relative to DMSO; higher = less toxic
[11] = tested on: Calu-3; assay: as above
[12] = tested on: HepG2; assay: as above
[13] = tested on: Caco-2; assay: as above
[14] = tested on: Vero E6; assay: as above
[15] = tested on: Caco-2; assay: relative viability EC50 (midpoint between 100% and the lowest measured viability); higher = less toxic

Row | Structure (SMILES) | relative viability EC50 [1] [µM] | relative viability EC50 [2] [µM] | relative viability EC50 [3] [µM] | relative viability EC50 [4] [µM] | drug sensitivity score [5] | drug sensitivity score [6] | drug sensitivity score [7] | drug sensitivity score [8] | drug sensitivity score [9] | cell viability ([10]; 1 nM) [%] | cell viability ([10]; 10 nM) [%] | cell viability ([10]; 100 nM) [%] | cell viability ([10]; 1000 nM) [%] | cell viability ([10]; 10000 nM) [%] | cell viability ([11]; 1 nM) [%] | cell viability ([11]; 10 nM) [%] | cell viability ([11]; 100 nM) [%] | cell viability ([11]; 1000 nM) [%] | cell viability ([11]; 10000 nM) [%] | cell viability ([12]; 1 nM) [%] | cell viability ([12]; 10 nM) [%] | cell viability ([12]; 100 nM) [%] | cell viability ([12]; 1000 nM) [%] | cell viability ([12]; 10000 nM) [%] | cell viability ([13]; 1 nM) [%] | cell viability ([13]; 10 nM) [%] | cell viability ([13]; 100 nM) [%] | cell viability ([13]; 1000 nM) [%] | cell viability ([13]; 10000 nM) [%] | cell viability ([14]; 1 nM) [%] | cell viability ([14]; 10 nM) [%] | cell viability ([14]; 100 nM) [%] | cell viability ([14]; 1000 nM) [%] | cell viability ([14]; 10000 nM) [%] | relative viability EC50 [15] [µM]
1 | N#Cc1cnc2c(Cl)cc(NCc3cn(CCN4CCCCCC4)nn3)cc2c1Nc1ccc(F)c(Cl)c1 [cot-inhibitor-1] | > 10 | > 10 | > 10 | > 10 | 0.7 | 0 | 0.2 | 1.7 | 0 | 102 | 103 | 101 | 101 | 77 | 104 | 103 | 99.5 | 96.9 | 96.2 | 95 | 107 | 96.7 | 120 | 80.6 | 92.1 | 99.7 | 105 | 98 | 67.8 | 94.2 | 102 | 92.2 | 96.9 | 103 | –
2 | CC(=O)Oc1c(C)cc(OCC(O)CNC(C)C)c(C)c1C (stereo not drawn) [metipranolol] | > 10 | > 10 | > 10 | > 10 | 0 | 0 | 1.5 | 1.3 | 1.6 | 99.1 | 97.3 | 96.2 | 93.9 | 93.8 | 94.6 | 89.8 | 97.7 | 96.1 | 92.9 | 101 | 102 | 105 | 84 | 93.3 | 73.8 | 84.6 | 102 | 98.7 | 70.3 | 103 | 107 | 94.6 | 85.8 | 97.5 | –
3 | CC[N+](CC)(CCCNC1=CC(=O)C(NCCC[N+](CC)(CC)Cc2ccccc2)=CC1=O)Cc1ccccc1 [benzoquinonium-dibromide] | > 10 | > 10 | > 10 | – | 0 | 0 | 0 | 0 | – | 94.6 | 94.4 | 96.8 | 95.8 | 98.3 | 103 | 92.9 | 108 | 104 | 96.8 | 96.3 | 106 | 95.2 | 100 | 95 | 94.5 | 98.6 | 95.4 | 96.3 | 91.7 | – | – | – | – | – | > 10
4 | NCc1c[nH]c(=S)n1[C@H]1CCc2c(F)cc(F)cc2C1 [nepicastat] | > 10 | > 10 | > 10 | > 10 | 0 | 0 | 0 | – | 0 | 101 | 105 | 99 | 106 | 97.2 | 87.7 | 95.3 | 98.6 | 103 | 97.6 | 100 | 95.2 | 93.8 | 102 | 96.2 | – | – | – | – | – | 105 | 104 | 106 | 96.7 | 108 | –
5 | N#Cc1ccccc1OCC(O)CNCCNC(=O)Nc1ccccc1 (stereo not drawn) | > 10 | > 10 | > 10 | – | 0 | 0 | 0 | 0 | – | 99.5 | 94.3 | 95.3 | 95.7 | 97.1 | 100 | 94.7 | 102 | 92.8 | 92.4 | 108 | 102 | 110 | 107 | 93.6 | 101 | 102 | 91.4 | 99.5 | 101 | – | – | – | – | – | > 10
6 | CCOP(=S)(OCC)Oc1cc(C)nc(C(C)C)n1 [dimpylate] | > 10 | > 10 | > 10 | – | 0 | 0 | 0 | 0 | – | 104 | 102 | 102 | 97.9 | 99.2 | 106 | 100 | 99.3 | 97.7 | 96.3 | 92.9 | 104 | 106 | 101 | 96.8 | 102 | 95.4 | 103 | 93 | 93.2 | – | – | – | – | – | > 10
7 | Cc1ccc(-c2ncn(-c3ccc(Nc4nccc(-c5cccc(N6CCOCC6)c5)n4)cc3)n2)cn1 [SR-3306] | > 10 | > 10 | 3.04 | > 10 | 0.6 | 0 | 3.3 | 2.6 | 0 | 102 | 104 | 97.9 | 103 | 78 | 99.9 | 98.3 | 87.8 | 94.7 | 98.6 | 99.8 | 90.8 | 100 | 98.9 | 40.9 | 99.3 | 98.7 | 95.9 | 92.2 | 67.5 | 109 | 109 | 106 | 99.1 | 92.9 | –
8 | Nc1ccc(C(=O)NCC(=O)O)cc1 [4-aminohippuric-acid] | – | > 10 | > 10 | > 10 | – | 0 | 0 | 0.1 | 0 | – | – | – | – | – | 106 | 91.1 | 109 | 106 | 101 | 100 | 107 | 99 | 104 | 89.8 | 97.1 | 99.7 | 100 | 89.5 | 93 | 97.5 | 99.1 | 101 | 100 | 96.2 | > 10
9 | CCCOC(=O)c1ccccc1 [propyl-benzoate] | – | > 10 | > 10 | > 10 | – | 0 | 0 | – | 0 | – | – | – | – | – | 98.5 | 90.6 | 98.2 | 99.1 | 102 | 98.7 | 98.2 | 94.7 | 93 | 94.4 | – | – | – | – | – | 94.3 | 94.6 | 91.8 | 90.3 | 101 | –
10 | CC(C)(OCc1nn(Cc2ccccc2)c2ccccc12)C(=O)O [bindarit] | – | > 10 | > 10 | > 10 | – | 0 | 0 | 0 | 0 | – | – | – | – | – | 99 | 95.5 | 106 | 95.1 | 104 | 97.2 | 96.4 | 100 | 99.2 | 100 | 104 | 101 | 108 | 102 | 96.8 | 102 | 105 | 100 | 107 | 91.4 | > 10
11 | COC(=O)C1=C(C)NC(C)=C(C(=O)OCCN2CCN(C(c3ccccc3)c3ccccc3)CC2)C1c1cccc([N+](=O)[O-])c1 (stereo not drawn) [manidipine] | – | > 10 | > 10 | > 10 | 1.5 | 0.8 | 0.3 | 2.5 | 0 | 98.3 | 100 | 93.8 | 97.6 | 71.9 | 94.6 | 103 | 104 | 91.5 | 85.4 | 105 | 104 | 104 | 104 | 81.4 | 98.4 | 93.9 | 104 | 94.5 | 65.4 | 100 | 103 | 96.7 | 100 | 93.3 | –
12 | Oc1ccc(C2CNCCc3c2cc(O)c(O)c3Cl)cc1 (stereo not drawn) [fenoldopam] | > 10 | > 10 | > 10 | > 10 | 0 | 0 | 0 | 6.6 | 0 | 103 | 101 | 99.1 | 102 | 103 | 96.5 | 110 | 105 | 109 | 107 | 104 | 102 | 95.3 | 105 | 94.8 | 96 | 87 | 80.6 | 76.6 | 73.7 | 101 | 99.4 | 97.3 | 103 | 96.7 | –
13 | CCc1cnc(N2CCC(c3nc(COc4ccc(-n5cnnn5)cc4)cs3)CC2)nc1 [MBX-2982] | > 10 | > 10 | 3.13 | > 10 | 0 | 0 | 3.5 | 2.1 | 0.9 | 103 | 94.8 | 96.7 | 96.2 | 93.7 | 97.5 | 92 | 109 | 102 | 103 | 97.4 | 94.6 | 93.2 | 99.7 | 36 | 95.8 | 107 | 86.9 | 96.1 | 67.5 | 102 | 106 | 105 | 97.2 | 80.4 | –
14 | Cc1cc(/C=C/C#N)cc(C)c1Nc1ccnc(Nc2ccc(C#N)cc2)n1 [rilpivirine] | > 10 | > 10 | 2.69 | – | 1.1 | 0 | 3.2 | 3.1 | 1.5 | 94.8 | 99.1 | 99.6 | 95.4 | 80.5 | 97 | 93.7 | 99.8 | 95.6 | 92.7 | 98.9 | 99.8 | 99.5 | 96.9 | 47.7 | 97.8 | 98 | 93.3 | 87.3 | 61.4 | 100 | 100 | 96.8 | 98.5 | 70.5 | –
15 | COc1ccc2c(NC(=O)Nc3cccc(C(F)(F)F)n3)ccnc2c1 | > 10 | > 10 | > 10 | – | 0 | 0 | 0 | 0 | – | 102 | 96.6 | 106 | 101 | 104 | 97.6 | 99 | 96.1 | 94.8 | 93.6 | 108 | 108 | 93.8 | 105 | 95.6 | 97.7 | 106 | 100 | 95.5 | 93.4 | – | – | – | – | – | > 10
